Results from ChEMBL document CHEMBL1132615, “Structure--activity relationships of lysophosphatidic acid: conformationally restricted backbone mimetics” (J Med Chem, 1999).

How the values were obtained:
[1] = Relative potency was evaluated for its ability to mobilize intracellular calcium in MDA MB231 cells.*did not reach a maximal response at the highest concentration used; assay type: functional, cell-based; conditions: Homo sapiens, MDA-MB-231
[2] = Relative potency was evaluated for its ability to mobilize intracellular calcium in MDA MB231 cells.; assay type: functional, cell-based; conditions: Homo sapiens, MDA-MB-231

EC50 [1]	EC50 [2]	Structure (SMILES)
3 nM	–	CCCCCCCC/C=C\CCCCCCCC(=O)NCCOP(=O)(O)O
> 500000 nM	–	CCCCCCCCCC(=O)Oc1ccc(C(=O)c2ccc(OP(=O)(O)O)cc2)cc1
–	5 nM	CCCCCCCC/C=C\CCCCCCCC(=O)OCC(O)COP(=O)(O)O (single isomer, unassigned) [LYSOPHOSPHATIDIC ACID]
–	460 nM	CCCCCC/C=C\CCCCCCCC(=O)Nc1cccc(OP(=O)(O)O)c1
–	1830 nM	CCCCCC/C=C\CCCCCCCC(=O)Nc1ccc(OP(=O)(O)O)cc1
850 nM	–	CCCCCC/C=C\CCCCCCCC(=O)Oc1cccc(OP(=O)(O)O)c1
–	460 nM	CCCCCCCCCCCCCCCC(=O)Nc1cccc(OP(=O)(O)O)c1
1990 nM	–	CCCCCCCCCCCCCC(=O)Oc1ccc(C(=O)c2ccc(OP(=O)(O)O)cc2)cc1
1560 nM	–	CCCCCCCCCCCCCCCC(=O)Nc1ccc(OP(=O)(O)O)cc1
4710 nM	–	CCCCCCCCCCCC(=O)Oc1ccc(C(=O)c2ccc(OP(=O)(O)O)cc2)cc1
> 500000 nM	–	CCCCCCCC(=O)Oc1ccc(C(=O)c2ccc(OP(=O)(O)O)cc2)cc1
–	310 nM	CCCCCCCCCCCCCCCC(=O)Oc1cccc(OP(=O)(O)O)c1
